Test results: PubChem BioAssay AID248 (DTP/NCI, 2004)
Inconclusive results and toxic doses are left out. Cut-off read from the data, not from the text of the source: active = T/C of 150% or more; inactive = T/C below 125%.

Tested on: L1210 leukemia ip in BDF1 mice, survival T/C
Assay: NCI In Vivo Anticancer Drug Screen. Data for tumor model L1210 Leukemia (intraperitoneal) in B6D2F1 (BDF1) mice
Conditions: endpoint: mean survival time, higher = longer survival
Procedure, shortened: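 Antitumor effect is assessed in tumor-bearing animals. Survival in the compound arm is compared with a vehicle-dosed control arm and expressed as their quotient.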

[1] = dose: 100.0 mg/kg/injection, schedule: Q01DX001 (ip), vehicle: saline
[2] = dose: 200.0 mg/kg/injection, schedule: Q01DX001 (ip), vehicle: saline
[3] = dose: 400.0 mg/kg/injection, schedule: Q01DX001 (ip), vehicle: saline
[4] = dose: 100.0 mg/kg/injection, schedule: Q04DX002 (ip), vehicle: saline with Tween-80
[5] = dose: 200.0 mg/kg/injection, schedule: Q04DX002 (ip), vehicle: saline with Tween-80
[6] = dose: 400.0 mg/kg/injection, schedule: Q04DX002 (ip), vehicle: saline with Tween-80
[7] = dose: 100.0 mg/kg/injection, schedule: Q01DX009 (ip), vehicle: saline with Tween-80
[8] = dose: 100.0 mg/kg/injection, schedule: Q01DX009 (ip), vehicle: Klucel (hydroxypropylcellulose) (HPC)
[9] = dose: 100.0 mg/kg/injection, schedule: Q04DX003 (ip), vehicle: Klucel (hydroxypropylcellulose) (HPC)
[10] = dose: 200.0 mg/kg/injection, schedule: Q01DX009 (ip), vehicle: Klucel (hydroxypropylcellulose) (HPC)
[11] = dose: 200.0 mg/kg/injection, schedule: Q04DX003 (ip), vehicle: Klucel (hydroxypropylcellulose) (HPC)
[12] = dose: 400.0 mg/kg/injection, schedule: Q01DX009 (ip), vehicle: Klucel (hydroxypropylcellulose) (HPC)
[13] = dose: 400.0 mg/kg/injection, schedule: Q04DX003 (ip), vehicle: Klucel (hydroxypropylcellulose) (HPC)
[14] = dose: 100.0 mg/kg/injection, schedule: Q04DX003 (ip), vehicle: other
[15] = dose: 75.0 mg/kg/injection, schedule: Q01DX001 (ip), vehicle: saline
[16] = dose: 150.0 mg/kg/injection, schedule: Q01DX001 (ip), vehicle: saline
[17] = dose: 300.0 mg/kg/injection, schedule: Q01DX001 (ip), vehicle: saline
[18] = dose: 25.0 mg/kg/injection, schedule: Q01DX009 (ip), vehicle: Klucel (hydroxypropylcellulose) (HPC)
[19] = dose: 100.0 mg/kg/injection, schedule: Q04DX003 (ip), vehicle: saline with Tween-80
[20] = dose: 200.0 mg/kg/injection, schedule: Q04DX003 (ip), vehicle: saline with Tween-80
[21] = dose: 100.0 mg/kg/injection, schedule: Q01DX009 (ip), vehicle: saline
[22] = dose: 200.0 mg/kg/injection, schedule: Q01DX009 (ip), vehicle: saline

Measured: T/C

c1ccc(C2SC(c3ccccc3)SC(c3ccccc3)S2)cc1 (stereo not given)
inactive: [1] 90 % of control | [2] 88 % of control | [3] 92 % of control

Oc1cccc(-c2cc3c(O)ccc(O)c3[nH]2)c1
inactive: dose: 100.0 mg/kg/injection, schedule: Q04DX002 (ip), vehicle: Klucel (hydroxypropylcellulose) (HPC) 86 % of control | dose: 200.0 mg/kg/injection, schedule: Q04DX002 (ip), vehicle: Klucel (hydroxypropylcellulose) (HPC) 99 % of control | dose: 400.0 mg/kg/injection, schedule: Q04DX002 (ip), vehicle: Klucel (hydroxypropylcellulose) (HPC) 91 % of control

O=C(NCCCCC(NC(=O)OCc1ccccc1)C(=O)NCCCCCCCCCCNC(=O)C(CCCCNC(=O)OCc1ccccc1)NC(=O)OCc1ccccc1)OCc1ccccc1 (stereo not given)
inactive: dose: 10.0 mg/kg/injection, schedule: Q01DX012 (ip), vehicle: saline 94 % of control | dose: 30.0 mg/kg/injection, schedule: Q01DX012 (ip), vehicle: saline 96 % of control | dose: 100.0 mg/kg/injection, schedule: Q01DX012 (ip), vehicle: saline 94 % of control | dose: 300.0 mg/kg/injection, schedule: Q01DX012 (ip), vehicle: saline 88 % of control

CCOc1cc(-c2ccc(OC)cc2)nc(N)n1
inactive: [4] 91 % of control | [5] 97 % of control | [6] 91 % of control

CC(=O)CC(=O)CC(O)(C(F)(F)F)C(F)(F)F
inactive: [7] 96 % of control

CC1(C)OC(=O)CC1c1ccc(Cl)cc1 (stereo not given)
inactive: [1] 98 % of control | [2] 93 % of control | [3] 106 % of control

COc1cc(O)c(OC)cc1O
inactive: [8] 100 % of control | [9] 105 % of control | [10] 103 % of control | [11] 103 % of control | [12] 97 % of control | [13] 102 % of control

CCOC(=O)c1c(C)c(Br)c(O)c(Br)c1O
inactive: [1] 98 % of control | [14] 86 % of control | [2] 91 % of control | dose: 200.0 mg/kg/injection, schedule: Q04DX003 (ip), vehicle: other 100 % of control | [3] 103 % of control | dose: 400.0 mg/kg/injection, schedule: Q04DX003 (ip), vehicle: other 106 % of control

CCOC(=O)C(=N\Nc1cc(C)ccc1C)/C(C)=N\NC(N)=S
inactive: [15] 87 % of control | [16] 97 % of control | [17] 97 % of control

Cc1cc(OC(=O)Nc2ccc(F)c([N+](=O)[O-])c2)cc(C)c1Cl
inactive: [8] 101 % of control | [10] 93 % of control | [12] 95 % of control

O=C(OCc1ccc2c(c1)OCO2)C1CC1
inactive: [4] 103 % of control | [6] 101 % of control

C=C(Br)CNC(=O)C1CCCCC1
inactive: dose: 3.0 mg/kg/injection, schedule: Q04DX003 (ip), vehicle: Klucel (hydroxypropylcellulose) (HPC) 95 % of control | dose: 6.0 mg/kg/injection, schedule: Q04DX003 (ip), vehicle: Klucel (hydroxypropylcellulose) (HPC) 107 % of control | dose: 6.25 mg/kg/injection, schedule: Q01DX009 (ip), vehicle: Klucel (hydroxypropylcellulose) (HPC) 102 % of control | dose: 12.0 mg/kg/injection, schedule: Q04DX003 (ip), vehicle: Klucel (hydroxypropylcellulose) (HPC) 93 % of control | dose: 12.5 mg/kg/injection, schedule: Q01DX009 (ip), vehicle: Klucel (hydroxypropylcellulose) (HPC) 102 % of control | [18] 100 % of control

Cc1cccnc1N
inactive: [4] 104 % of control | [5] 107 % of control

CCCCCC(OCC)(OCC)OCC
inactive: [8] 95 % of control | [9] 104 % of control | [10] 96 % of control | [11] 93 % of control | [12] 92 % of control | [13] 93 % of control

Cc1ccc(-n2c(=O)[nH]c3c(c2=O)C(c2ccc(Cl)cc2)C(C)(C)O3)cc1 (stereo not given)
inactive: dose: 12.5 mg/kg/injection, schedule: Q01DX001 (ip), vehicle: saline 97 % of control | dose: 12.5 mg/kg/injection, schedule: Q04DX003 (ip), vehicle: saline 107 % of control | dose: 25.0 mg/kg/injection, schedule: Q04DX003 (ip), vehicle: saline 101 % of control | dose: 50.0 mg/kg/injection, schedule: Q01DX001 (ip), vehicle: saline 96 % of control | dose: 50.0 mg/kg/injection, schedule: Q04DX003 (ip), vehicle: saline 90 % of control | dose: 75.0 mg/kg/injection, schedule: Q04DX003 (ip), vehicle: saline 97 % of control | dose: 113.0 mg/kg/injection, schedule: Q04DX003 (ip), vehicle: saline 94 % of control | dose: 169.0 mg/kg/injection, schedule: Q04DX003 (ip), vehicle: saline 95 % of control

COc1cccc(OC)c1OS(=O)(=O)c1ccc(COc2ccc([N+](=O)[O-])cc2Cl)cc1
inactive: [9] 98 % of control | [11] 90 % of control | [13] 90 % of control

COC(=O)c1ccccc1NC(=O)Nc1ccc(F)cc1
inactive: [8] 90 % of control | [10] 90 % of control | [12] 90 % of control

O=C(O)C12CCCC(CCC1)C2=O
inactive: [15] 100 % of control | [16] 102 % of control | [17] 100 % of control

CCNC(=O)OCc1cc(Cl)cc(Cl)c1OC(=O)NCC
inactive: dose: 100.0 mg/kg/injection, schedule: Q01DX001 (ip), vehicle: carboxymethylcellulose (CMC) 103 % of control | dose: 200.0 mg/kg/injection, schedule: Q01DX001 (ip), vehicle: carboxymethylcellulose (CMC) 97 % of control | dose: 400.0 mg/kg/injection, schedule: Q01DX001 (ip), vehicle: carboxymethylcellulose (CMC) 106 % of control

CCCCCCCCSCC(=O)O
inactive: [19] 103 % of control | [20] 97 % of control

C=C1OC(n2cnc3c(=N)n(O)cnc32)C2OC(C)(C)OC12 (stereo not given)
inactive: dose: 100.0 mg/kg/injection, schedule: Q01DX005 (ip), vehicle: saline 96 % of control | dose: 200.0 mg/kg/injection, schedule: Q01DX005 (ip), vehicle: saline 102 % of control

CC(C)(C)c1cc(O)c(O)c(C(C)(C)C)c1
inactive: dose: 25.0 mg/kg/injection, schedule: Q04DX003 (ip), vehicle: other 104 % of control | dose: 50.0 mg/kg/injection, schedule: Q04DX003 (ip), vehicle: other 104 % of control | [14] 105 % of control

NNc1ccnc2c1cnn2C1OC(CO)C(O)C1O (stereo not given)
inactive: dose: 50.0 mg/kg/injection, schedule: Q01DX005 (ip), vehicle: other 105 % of control

CC(C)(SCCc1ccc([N+](=O)[O-])cc1)C(N)C(=O)O (stereo not given)
inactive: dose: 12.0 mg/kg/injection, schedule: Q01DX009 (ip), vehicle: Klucel (hydroxypropylcellulose) (HPC) 93 % of control | dose: 12.5 mg/kg/injection, schedule: Q04DX003 (ip), vehicle: Klucel (hydroxypropylcellulose) (HPC) 91 % of control | [18] 104 % of control | dose: 25.0 mg/kg/injection, schedule: Q04DX003 (ip), vehicle: Klucel (hydroxypropylcellulose) (HPC) 91 % of control | dose: 50.0 mg/kg/injection, schedule: Q01DX009 (ip), vehicle: Klucel (hydroxypropylcellulose) (HPC) 103 % of control | dose: 50.0 mg/kg/injection, schedule: Q04DX003 (ip), vehicle: Klucel (hydroxypropylcellulose) (HPC) 93 % of control

O=[N+]([O-])c1cc(C(F)(F)F)ccc1Cl
inactive: [21] 102 % of control | [22] 97 % of control

COc1cc(-c2cc(=O)c3c(O)cc(O)c(C4OC(CO)C(O)C(O)C4O)c3o2)ccc1O (stereo not given)
inactive: [21] 108 % of control | [22] 108 % of control | dose: 400.0 mg/kg/injection, schedule: Q01DX009 (ip), vehicle: saline 103 % of control

CC/C(=N/O)c1ccc(O)cc1O
inactive: [7] 106 % of control | [19] 101 % of control | dose: 200.0 mg/kg/injection, schedule: Q01DX009 (ip), vehicle: saline with Tween-80 106 % of control | [20] 101 % of control | dose: 400.0 mg/kg/injection, schedule: Q04DX003 (ip), vehicle: saline with Tween-80 101 % of control
